Assay [1] addresses T1, recombinant human sialidase NEU3 (Homo sapiens, UniProt Q9UQ49).
T1 construct: purchased Origene TP316537
T1 sequence (Q9UQ49 1-428): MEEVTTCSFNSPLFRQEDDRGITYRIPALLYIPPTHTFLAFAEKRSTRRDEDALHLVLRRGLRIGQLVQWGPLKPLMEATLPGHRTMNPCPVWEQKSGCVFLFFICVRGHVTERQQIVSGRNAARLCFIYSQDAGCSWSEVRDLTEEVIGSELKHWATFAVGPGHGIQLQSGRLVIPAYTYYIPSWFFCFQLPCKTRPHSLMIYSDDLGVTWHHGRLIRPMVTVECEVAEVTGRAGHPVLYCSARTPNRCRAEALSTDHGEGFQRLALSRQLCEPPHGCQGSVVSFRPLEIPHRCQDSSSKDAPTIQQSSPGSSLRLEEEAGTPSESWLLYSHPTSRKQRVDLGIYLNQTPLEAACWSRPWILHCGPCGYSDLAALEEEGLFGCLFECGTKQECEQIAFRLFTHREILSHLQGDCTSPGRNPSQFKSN
Kind of assay: NEU3-catalyzed L-TGF-β1 activation (TGF-β1 release/concentration assay, active TGF-β1 ELISA). The assay is classed as biochemical. Conditions: recombinant human NEU3, L-TGF-β1, PBS pH 6.9, 2 hours 37° C. The protocol: To determine if NEU3 can cause latent transforming growth factor-β1 (L-TGF-β1) to release active TGF-β1, 200 ng/ml recombinant human L-TGF-β1 (299-LT/CF, R&D Systems) was incubated with varying concentrations of recombinant human NEU3 (TP316537, Origene) in a total volume of 100 μl of PBS pH 6.9 in a 96-well microplate (651261, Greiner Bio-one, Monroe, NC). The microplates were covered with aluminum foil and incubated at 37° C. for 2 hours. Following incubation, the reaction mixtures were assayed using a TGF-β1 ELISA kit (DY240, R&D Systems) following the manufacturer's protocol with the exception that the reaction mixtures were not processed for acid treatment, so as to measure only active TGF-β1 and not total TGF-β1. The absorbance was read with a SynergyMX plate reader (BioTek, Winooski, VT).
To determine the ability of compounds 1-31 to inhibit human recombinant NEU3 in-vitro, compounds were dissolved in 5 ml water to 20 mM in 15 ml tubes (89039-664, VWR, Radnor, PA), with the exception that 4-hydroxypyridine-2-carboxylic acid, nicotinic acid, and 4-aminopicolinic acid were dissolved in 50 μl DMSO to 2 M, and this was then added to 4.95 ml of water to make a 20 mM stock, and O-(tetrahydro-2H-pyran-2yl) hydroxylamine and salicylic acid were dissolved in 50 μl methanol to 2 M, and this was then added to 4.95 ml of water to make a 20 mM stock. All stocks were stored at 4° C. and used within 2 weeks of preparation. A 10-fold dilution series of the compounds starting at 2 mM were made in PBS pH 6.9 in 1.7 ml clear microtubes (22-281, Genesee Scientific). 100 μl of diluted compound was added to the well of a 96 well plate and then 50 μl of 400 ng/ml recombinant human sialidase NEU3 (TP316537, Origene) in PBS pH 6.9 was added to each well (50 μl PBS pH 6.9 for the control), and the plate was incubated for 30 minutes at 37° C. 50 μl of 800 ng/ml L-TGF-β1 (299-LT/CF, R&D Systems) in PBS pH 6.9 was then added to the well. The plate was covered with aluminum foil and incubated for 2 hours at 37° C., and released active TGF-β1 was assayed as described above.
(ELISA stands for enzyme-linked immunosorbent assay.)

Assay [2] deals with NEU3-induced IL-6 production by human PBMC. Kind of assay: NEU3-induced extracellular IL-6 accumulation by human PBMC (IL-6 concentration assay). The assay is classed as cell-based. Conditions: NEU3, serum-free medium, 48 hours. The protocol:
Human peripheral blood was collected from healthy volunteers who gave written consent and with specific approval from the Texas A&M University human subjects review board. Peripheral blood mononuclear cells (PBMC) were isolated from the blood using Ficoll-Paque density gradient centrifugation (95021-205, GE Healthcare, Cincinnati, OH) following the manufacture's protocol. PBMC were cultured at […] in 96-well flat bottom tissue culture plates (type 62406-081; […] Louis, MO)) in a final volume of 200 μl per well. […] The sialidases were diluted in 100 μl of the same medium the cells were in, and added to 100 μl of cells at 1×10^5 cells/ml to make the total volume in a well 200 μl with 1×10^4 cells/well. The cells were then incubated at 37° C. in a humidified incubator with 5% CO2. The culture supernatants were collected after two or five days and assayed using an IL-6 ELISA kit (430501, Biolegend, San Diego, CA) following the manufacturer's protocol, reading absorbance with a SynergyMX plate reader (BioTek, Winooski, VT). Statistics were analyzed using Prism software (Graphpad, La Jolla, CA). At least three different donors were used for each assay. […] IL-6 in the culture supernatant was then assayed as described above. At least three different donors were used for each assay.

[3] abbreviates: read-out: IC50, inhibits human NEU3 in the TGF-β1 concentration assay.
The mark [4] stands for this setting: read-out: IC50, inhibits human NEU3 in the TGF-β1 concentration (release) assay.

The source of these data is US12616674B2, “Anti-fibrotic NEU3 inhibitor compounds and methods of use” (The Texas A&M University System, priority 2019, dated 2026).

Read-outs that look alike come from different tables or passages of the source. Bounds are passed on as bounds.

Turning to `O=C(O)c1cccc(CO)n1` [Compound 17, 6-(hydroxymethyl) picolinic acid], the IC50 in assay [1] (setting [3]) came out at 0.05 nM; in assay [2], 0.038 µM.
Consider `O=C(O)c1ccccn1` [Compound 4, picolinic acid], for which the IC50 in assay [1] (setting [3]) was below 0.01 nM; in assay [2], above 100 µM.
As to `NOC1CCCCO1` (stereo not shown) [Compound 16, O-(tetrahydro-2H-pyran-2-yl)-hydroxylamine], the IC50 in assay [1] (setting [4]) worked out at 2600 nM.
For the molecule `COc1ccnc(C(=O)O)c1` [Compound 9, 4-methoxy picolinic acid], the IC50 in assay [1] (setting [3]) is 3.2 nM; in assay [2], above 100 µM.
As for `O=C(O)[C@@H]1CCCCN1` [Compound 13, L-pipecolinic acid], the values for the IC50 in assay [1] (setting [3]) and in assay [2] were 0.49 nM and 7.9 µM, respectively.
In the same order, the values of `O=C(O)[C@H]1CCCN1` [Compound 29, D-proline] are 63 nM and 4.2 µM.
In the same order, the values of `NC1CCNC(C(=O)O)C1` (stereo not shown) [Compound 25, 2-piperidinecarboxylic acid, 4-amino] are 2 nM and 0.00013 µM.
`O=C(O)C1=CCCCN1` [Compound 12, sodium 1,4,5,6-tetrahydropyridine-2-carboxylate]: the IC50 in assay [1] (setting [4]) was 120000 nM.
As for `Cc1cccc(C(=O)O)n1` [Compound 27, 6-methyl-2-pyridinecarboxylic acid], the IC50 in assay [1] (setting [3]) is below 0.01 nM; in assay [2], 0.0041 µM.
For `CCOC(=O)C1=C[C@@H](OC(CC)CC)[C@H](NC(C)=O)[C@@H](N)C1` [Compound 28, oseltamivir, reference compound], the IC50 in assay [1] (setting [3]) amounted to 570 nM; in assay [2] it was 47 µM.
As to `O=C(O)c1ccc[nH]1` [Compound 30, pyrrole-2-carboxylic acid], the IC50 amounted to 164000 nM in assay [1] (setting [4]) and 9.5 µM in assay [2].
In the case of `O=C(O)c1ccc([N+](=O)[O-])cn1` [Compound 8, 5-nitro picolinic acid], the IC50 in assay [1] (setting [3]) was found to be 43 nM; in assay [2] it was 0.079 µM.
`CN1CCCCC1C(=O)O` (stereo not shown) [Compound 20, 1-methyl-2-piperidine carboxylic acid]: the IC50 came to 500 nM in assay [1] (setting [4]) and 0.03 µM in assay [2].
Regarding `O=C(O)C1CCCCCN1` (stereo not shown) [Compound 31, azepane-2-carboxylic acid], the IC50 is 2.4 nM in assay [1] (setting [3]) and 0.035 µM in assay [2].
Consider `O=C(O)c1cc(O)ccn1` [Compound 2, 4-hydroxypyridine-2-carboxylic acid], for which the IC50 in assay [2] is above 300 µM.
Consider `NC(=O)c1ccccn1` [Compound 10, picolinamide], for which the IC50 is 22 nM in assay [1] (setting [3]) and above 100 µM in assay [2].
In the case of `O=C(O)c1cccnc1` [Compound 14, nicotinic acid], the IC50 in assay [1] (setting [3]) was 0.011 nM; in assay [2], 1.5 µM.
The corresponding values for `CC(=O)Nc1ccc(C(=O)O)nc1` [Compound 3, 5-acetamidopyridine-2-carboxylic acid] are 11 nM and 6.2 µM.
On to `Nc1ccc(C(=O)O)nc1` [Compound 18, 5-aminopyridine-2-carboxylic acid], for which the values for the IC50 in assay [1] (setting [3]) and in assay [2] were 40 nM and 0.14 µM, respectively.
On to `O=C(O)c1ccccc1O` [Compound 15, salicylic acid], for which the IC50 in assay [1] (setting [4]) came out at 1800 nM.
Turning to `O=C(O)c1cc(=O)cc[nH]1` [Compound 24, 4-oxo-1,4-dihydropyridine-2-carboxylic acid], the IC50 in assay [2] came out at 8.5 µM.
Consider `Nc1ccncc1C(=O)O` [Compound 23, 4-aminonicotinic acid], for which the values for the IC50 in assay [1] (setting [3]) and in assay [2] were 5 nM and 10 µM, respectively.
For `O=C(O)c1cc(C(F)(F)F)ccn1` [Compound 21, 4-(trifluoromethyl) picolinic acid], the IC50 in assay [2] came out at 8e-05 µM.
On to `Nc1ccnc(C(=O)O)c1` [Compound 7, 4-amino picolinic acid], for which the IC50 in assay [1] (setting [3]) was 4 nM; in assay [2] it was above 100 µM.
As for `O=[N+]([O-])c1ccccn1` [Compound 19, 2-Nitropyridine], the results for the IC50 in assay [1] (setting [3]) and in assay [2] were 40 nM and 0.02 µM, respectively.
`Cc1ccnc(C(=O)O)c1` [Compound 22, 4-methylpicolinic acid]: the IC50 in assay [1] (setting [4]) was found to be 130 nM; in assay [2], 4.7 µM.
